For three molecules, Drug metabolism results are on record in ChEMBL document CHEMBL3867478, “ProTides of BVdU as potential anticancer agents upon efficient intracellular delivery of their activated metabolites” (Bioorg Med Chem Lett, 2016).

This data set in a line: Drug level in pH 7.6 trizma buffer treated with 5 mg (E)-5-(2-bromovinyl)-2'-deoxyuridine-5'-(1-naphthyl(methoxy-L-tryptophanyl)-phosphate assessed as carboxypeptidase Y (unknown origin)-mediated compound formation measured every 7 mins for 14 hrs by [31P]-NMR spectroscopic analysis. Type of data set: ADME. To be noted: pH 7.6, 14 h.
Consider `O=C(O)C(Cc1c[nH]c2ccccc12)NP(=O)(OC[C@H]1O[C@@H](n2cc(/C=C/Br)c(=O)[nH]c2=O)C[C@@H]1O)Oc1cccc2ccccc12` (stereo partly drawn), for which the Drug metabolism result is on record as “Metabolite_Detected”.
Next, `O=C1OP(=O)(OC[C@H]2O[C@@H](n3cc(/C=C/Br)c(=O)[nH]c3=O)C[C@@H]2O)NC1Cc1c[nH]c2ccccc12` (stereo partly drawn): “Metabolite_Detected”.
The entry for `O=C(O)C(Cc1c[nH]c2ccccc12)NP(=O)(O)OC[C@H]1O[C@@H](n2cc(/C=C/Br)c(=O)[nH]c2=O)C[C@@H]1O` (stereo partly drawn) is “Metabolite_Detected”.
